Here are results for 13 compounds from ChEMBL document CHEMBL1201862, “PubChem BioAssay data set” (2004).

Test systems include SW-620; ACHN; COLO 205; HCT-116; KM12; NCI-H226; LOX IMVI; SK-OV-3; HT-29; CCRF-CEM; CAKI-1; NCI-H522; OVCAR-8; HOP-62; HCC 2998; NCI/ADR-RES; DU-145; MDA-N; MDA-MB-435.
What all share (test): NCI anticancer screen, dose series, 48 h

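Cultured in 96-well plates, cells were exposed to test compound for 48 hours across five concentrations. The concentration for 50% growth inhibition is given as GI50.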 Active and inactive are the calls of the source. Cut-off read from the data, not from the text of the source: active = GI50 up to about 1.1 µM and inactive = higher. Some results are limits rather than exact numbers.

Regarding `Nc1nc[n+](Cc2ccccc2)c2ncn(Cc3ccccc3)c12`, the GI50 with SW-620 is > 100 µM (inactive); with ACHN it was > 100 µM (inactive); with COLO 205, 26.7 µM (inactive); in the experiment with HCT-116, 37.9 µM (inactive); with KM12, 68.9 µM (inactive); with NCI-H226 it was > 100 µM (inactive). Besides, the GI50 was > 100 µM (inactive) in the experiment on LOX IMVI; > 100 µM (inactive) in the experiment on SK-OV-3; 31.6 µM (inactive) with HT-29; > 100 µM (inactive) in the experiment with CCRF-CEM; 54.3 µM (inactive) in the experiment on CAKI-1; 81.3 µM (inactive) in the experiment with NCI-H522. The GI50 was > 100 µM (inactive) in the experiment on OVCAR-8, 32.6 µM (inactive) with HOP-62 and 15.5 µM (inactive) with HCC 2998.

Turning to `CC1=CCN(c2ccccn2)OC1c1ccccc1` (stereo unspecified), the GI50 with SW-620, in the experiment with ACHN, in the experiment with COLO 205, in the experiment on HCT-116, in the experiment with KM12 and in the experiment with NCI-H226 was > 100 µM (inactive) throughout. In addition, the GI50 in the experiment on LOX IMVI is > 100 µM (inactive); in the experiment on SK-OV-3, > 100 µM (inactive); in the experiment on HT-29 it was > 100 µM (inactive); in the experiment on CCRF-CEM it was > 100 µM (inactive); in the experiment on CAKI-1, > 100 µM (inactive); in the experiment with NCI-H522, 54.6 µM (inactive). In addition, the GI50 in the experiment with OVCAR-8, in the experiment on HOP-62 and in the experiment with HCC 2998 was > 100 µM (inactive) each time.

Take `CCC(=O)C1(c2ccccc2)CCN(C)CC1`: the GI50 in the experiment on SW-620, with NCI/ADR-RES, in the experiment on DU-145, with ACHN, with COLO 205 and in the experiment on HCT-116 was > 100 µM (inactive) each time. The GI50 in the experiment on KM12, in the experiment with SK-OV-3, with HT-29, in the experiment with MDA-N, in the experiment on CCRF-CEM and in the experiment with CAKI-1 was > 100 µM (inactive) throughout. In addition, the GI50 in the experiment with OVCAR-8, in the experiment on HOP-62 and in the experiment on HCC 2998 was > 100 µM (inactive) each time.

On to `O=[N+]([O-])c1ccc(C2CC(c3ccccc3Cl)=Nc3ccccc3S2)cc1` (stereo unspecified), for which the GI50 is 1.78 µM (inactive) in the experiment with SW-620; 7.85 µM (inactive) with ACHN; 15.8 µM (inactive) in the experiment on COLO 205; 1.96 µM (inactive) in the experiment with HCT-116; 3.08 µM (inactive) with KM12; 6.87 µM (inactive) in the experiment on NCI-H226. Also, the GI50 is 3.7 µM (inactive) with LOX IMVI; 29 µM (inactive) in the experiment on SK-OV-3; 4.35 µM (inactive) with HT-29; 2.07 µM (inactive) with CCRF-CEM; 4.46 µM (inactive) in the experiment with CAKI-1; 2.89 µM (inactive) in the experiment on NCI-H522. Besides, the GI50 with OVCAR-8 was 2.2 µM (inactive); with HOP-62, 22.3 µM (inactive); in the experiment on HCC 2998, 23.9 µM (inactive).

With `CCOc1ccccc1NC(=O)C(=O)C(C(=O)c1ccc2ccccc2c1)C1OC(=O)c2ccccc21` (stereo unspecified), the GI50 was 6.31 µM (inactive) in the experiment with SW-620; 29.2 µM (inactive) in the experiment with ACHN; 14.8 µM (inactive) with COLO 205; 9.2 µM (inactive) with HCT-116; 20.8 µM (inactive) in the experiment on KM12; 1.82 µM (inactive) in the experiment with NCI-H226. Besides, the GI50 is 12.5 µM (inactive) in the experiment with LOX IMVI; 15.4 µM (inactive) with SK-OV-3; 28.6 µM (inactive) in the experiment on HT-29; 8.22 µM (inactive) in the experiment on CCRF-CEM; 10.4 µM (inactive) in the experiment on CAKI-1; 11.8 µM (inactive) with NCI-H522. In addition, the figures for the GI50 in the experiment with OVCAR-8, with HOP-62 and with HCC 2998 were 8.49 µM (inactive), 13.4 µM (inactive) and 10.7 µM (inactive), respectively.

In the case of `CCOC(=O)/C1=C(\C)N(Cc2ccccc2)C(=O)c2ccccc2C(=O)c2c(OC(C)=O)ccc(OC(C)=O)c21`, the GI50 was 65.3 µM (inactive) with SW-620; 47.6 µM (inactive) with MDA-MB-435; 31.8 µM (inactive) in the experiment with NCI/ADR-RES; > 100 µM (inactive) in the experiment with ACHN; 78.7 µM (inactive) in the experiment with COLO 205; 47 µM (inactive) in the experiment on KM12. Besides, the GI50 was > 100 µM (inactive) with LOX IMVI; > 100 µM (inactive) with SK-OV-3; 40.2 µM (inactive) in the experiment on HT-29; 36 µM (inactive) in the experiment with MDA-N; 40.8 µM (inactive) in the experiment on CCRF-CEM; 72.3 µM (inactive) with CAKI-1. The GI50 is 34.9 µM (inactive) in the experiment on NCI-H522, 67.8 µM (inactive) with OVCAR-8, 40.6 µM (inactive) in the experiment on HOP-62 and 7.6 µM (inactive) with HCC 2998.

Consider `COc1ccccc1OCC(COC(=O)Nc1ccc(C)cc1)OC(=O)Nc1ccc(C)cc1` (stereo unspecified), for which the GI50 in the experiment with SW-620 is 14.9 µM (inactive); with ACHN, 21.8 µM (inactive); with COLO 205, 18.2 µM (inactive); in the experiment with HCT-116, 17.5 µM (inactive); with KM12, 20.6 µM (inactive); in the experiment on NCI-H226 it was 24.7 µM (inactive). Besides, the GI50 in the experiment with LOX IMVI is 15.8 µM (inactive); in the experiment on SK-OV-3, 24.7 µM (inactive); in the experiment with HT-29 it was 19.2 µM (inactive); with CCRF-CEM, 18.2 µM (inactive); in the experiment with CAKI-1, 13.1 µM (inactive); with NCI-H522 it was 16.1 µM (inactive). Besides, the GI50 in the experiment with OVCAR-8 is 17 µM (inactive); with HOP-62 it was 38.5 µM (inactive); in the experiment with HCC 2998 it was 20.6 µM (inactive).

Take `O=C(N/N=C(/c1nc2ccc([N+](=O)[O-])cc2[nH]c1=O)C(O)c1ccc([N+](=O)[O-])cc1)c1ccncc1` (stereo unspecified): the GI50 in the experiment with SW-620 was > 100 µM (inactive); in the experiment with ACHN it was 39.7 µM (inactive); with COLO 205, > 100 µM (inactive); with HCT-116, > 100 µM (inactive); in the experiment on KM12 it was 59 µM (inactive); in the experiment with NCI-H226, > 100 µM (inactive). Further, the GI50 is > 100 µM (inactive) in the experiment with LOX IMVI; > 100 µM (inactive) in the experiment on SK-OV-3; > 100 µM (inactive) in the experiment on HT-29; 16.3 µM (inactive) in the experiment with CCRF-CEM; 42 µM (inactive) with CAKI-1; 6.64 µM (inactive) in the experiment with NCI-H522. Also, the figures for the GI50 with OVCAR-8, in the experiment on HOP-62 and in the experiment with HCC 2998 were > 100 µM (inactive), 69.7 µM (inactive) and 41.6 µM (inactive), respectively.

As for `COc1cc(O)c(C(C)=O)c(O)c1`, the GI50 in the experiment on SW-620 is > 100 µM (inactive); in the experiment on MDA-MB-435 it was 82.6 µM (inactive); with NCI/ADR-RES, > 100 µM (inactive); in the experiment with DU-145, 64.9 µM (inactive); with ACHN, 42.7 µM (inactive); in the experiment on COLO 205, > 100 µM (inactive). In addition, the GI50 with HCT-116 was 55 µM (inactive); in the experiment on KM12, > 100 µM (inactive); in the experiment with LOX IMVI it was 75.9 µM (inactive); in the experiment on SK-OV-3, > 100 µM (inactive); in the experiment with HT-29, > 100 µM (inactive); with MDA-N, > 100 µM (inactive). For the same compound, the GI50 in the experiment with NCI-H522 was 43.1 µM (inactive); with OVCAR-8, 55.2 µM (inactive); in the experiment on HOP-62, > 100 µM (inactive); in the experiment on HCC 2998, > 100 µM (inactive).

On to `N=C1SCCS1`, for which the GI50 in the experiment on SW-620, in the experiment on ACHN, in the experiment on COLO 205, with HCT-116, in the experiment on KM12 and with NCI-H226 was > 100 µM (inactive) each time. Moreover, the GI50 in the experiment on LOX IMVI, in the experiment with SK-OV-3, in the experiment on HT-29, with CCRF-CEM, with CAKI-1 and in the experiment on NCI-H522 was > 100 µM (inactive) throughout. Further, the GI50 with OVCAR-8, in the experiment with HOP-62 and in the experiment with HCC 2998 was > 100 µM (inactive) throughout.

Take `O=c1ss/c(=N\c2ccccc2)n1-c1ccccc1`: the GI50 was 24.4 µM (inactive) with SW-620; 31.9 µM (inactive) in the experiment on MDA-MB-435; 28.3 µM (inactive) with NCI/ADR-RES; 16.9 µM (inactive) in the experiment on DU-145; 17.1 µM (inactive) with ACHN; 26.1 µM (inactive) in the experiment on COLO 205. The GI50 was 30.8 µM (inactive) with KM12; 20.1 µM (inactive) in the experiment with NCI-H226; 19.3 µM (inactive) with LOX IMVI; > 100 µM (inactive) with SK-OV-3; 38.5 µM (inactive) in the experiment on HT-29; 34.5 µM (inactive) in the experiment with MDA-N. Besides, the GI50 in the experiment on CCRF-CEM is 4.14 µM (inactive); with OVCAR-8, 16.8 µM (inactive); in the experiment on HOP-62, 20.6 µM (inactive); with HCC 2998 it was 36.8 µM (inactive).

On to `Cc1ccc(NC(=O)C(=O)C(C(=O)/C=C/c2ccccc2)C2OC(=O)c3ccccc32)c(C)c1` (stereo unspecified), for which the GI50 with SW-620, in the experiment on ACHN, with COLO 205, in the experiment with HCT-116, with KM12 and in the experiment with NCI-H226 was > 100 µM (inactive) each time. In addition, the GI50 with LOX IMVI, in the experiment with SK-OV-3, in the experiment with HT-29, in the experiment with CCRF-CEM, in the experiment on CAKI-1 and in the experiment on NCI-H522 was > 100 µM (inactive) each time. In addition, the GI50 with HOP-62 and with HCC 2998 was > 100 µM (inactive) throughout.

As to `COc1cc2c(c(OC)c1OC)-c1ccc(SC)c(=O)cc1[C@@H](NCc1cccc([N+](=O)[O-])c1)CC2`, the GI50 in the experiment with SW-620, in the experiment with ACHN, in the experiment on COLO 205, in the experiment on HCT-116, in the experiment on KM12 and in the experiment with NCI-H226 was < 0.01 µM (active) throughout. Also, the GI50 in the experiment on LOX IMVI, in the experiment on SK-OV-3, in the experiment on HT-29, in the experiment on CCRF-CEM, with CAKI-1 and with NCI-H522 was < 0.01 µM (active) in each case. Besides, the GI50 with OVCAR-8 and with HCC 2998 was < 0.01 µM (active) in each case.
